pIC50: −log10 of the molar value.
Assays:
[1] = Stability in human liver microsomes assessed as compound remaining at 1 uM after 30 mins by LC/MS analysis; type: ADME; conditions: read-out: Stability
[2] = biological target: T1, Sodium-dependent serotonin transporter (Homo sapiens, UniProt P31645); conditions: HEK293, at 1 µM
Target sequence in this assay (P31645 whole entry, looked up): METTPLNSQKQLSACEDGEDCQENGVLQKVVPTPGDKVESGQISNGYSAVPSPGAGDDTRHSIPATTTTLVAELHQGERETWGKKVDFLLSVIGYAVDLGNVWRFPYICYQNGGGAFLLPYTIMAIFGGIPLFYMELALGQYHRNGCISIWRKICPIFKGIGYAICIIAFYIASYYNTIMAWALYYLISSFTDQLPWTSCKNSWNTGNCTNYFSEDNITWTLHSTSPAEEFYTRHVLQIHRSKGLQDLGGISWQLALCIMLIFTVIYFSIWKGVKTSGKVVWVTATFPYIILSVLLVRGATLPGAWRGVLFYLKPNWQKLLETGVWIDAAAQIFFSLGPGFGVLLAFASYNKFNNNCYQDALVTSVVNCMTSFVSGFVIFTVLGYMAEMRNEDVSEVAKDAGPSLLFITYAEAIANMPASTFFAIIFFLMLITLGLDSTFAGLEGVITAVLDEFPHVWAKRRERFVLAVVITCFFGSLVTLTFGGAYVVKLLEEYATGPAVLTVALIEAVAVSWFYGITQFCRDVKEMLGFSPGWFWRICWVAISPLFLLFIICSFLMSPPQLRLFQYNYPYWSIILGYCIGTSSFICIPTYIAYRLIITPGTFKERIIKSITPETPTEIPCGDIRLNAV

CYP3A4 = CYP3A4 (Homo sapiens, UniProt P08684); test: in vitro; conditions: recombinant CYP3A4
CYP2C19 = CYP2C19 (Homo sapiens, UniProt P33261); test: in vitro; conditions: recombinant CYP2C19
[3] = biological target: T2, Sodium-dependent noradrenaline transporter (Homo sapiens, UniProt P23975)
CYP2C9 = CYP2C9 (Homo sapiens, UniProt P11712); test: in vitro; conditions: recombinant CYP2C9
[4] = biological target: T1, Sodium-dependent serotonin transporter; type: cell-based, HEK293
Target sequence in this assay (P31645 whole entry): as the sequence (P31645 whole entry, looked up) above

[5] = biological target: T1, Sodium-dependent serotonin transporter; conditions: HEK293, at 10 µM
Target sequence in this assay (P31645 whole entry, looked up): as above

[6] = biological target: T1, Sodium-dependent serotonin transporter; conditions: HEK293, at 0.1 µM
Target sequence in this assay (P31645 whole entry, looked up): as above

CYP2D6 = CYP2D6 (Homo sapiens, UniProt P10635); test: in vitro; conditions: recombinant CYP2D6
[7] = biological target: Sodium-dependent dopamine transporter (Homo sapiens, UniProt Q01959)
CYP1A2 = biological target: T3, CYP1A2 (Homo sapiens, UniProt P05177); test: in vitro; conditions: recombinant CYP1A2
T3 sequence (P05177 whole entry): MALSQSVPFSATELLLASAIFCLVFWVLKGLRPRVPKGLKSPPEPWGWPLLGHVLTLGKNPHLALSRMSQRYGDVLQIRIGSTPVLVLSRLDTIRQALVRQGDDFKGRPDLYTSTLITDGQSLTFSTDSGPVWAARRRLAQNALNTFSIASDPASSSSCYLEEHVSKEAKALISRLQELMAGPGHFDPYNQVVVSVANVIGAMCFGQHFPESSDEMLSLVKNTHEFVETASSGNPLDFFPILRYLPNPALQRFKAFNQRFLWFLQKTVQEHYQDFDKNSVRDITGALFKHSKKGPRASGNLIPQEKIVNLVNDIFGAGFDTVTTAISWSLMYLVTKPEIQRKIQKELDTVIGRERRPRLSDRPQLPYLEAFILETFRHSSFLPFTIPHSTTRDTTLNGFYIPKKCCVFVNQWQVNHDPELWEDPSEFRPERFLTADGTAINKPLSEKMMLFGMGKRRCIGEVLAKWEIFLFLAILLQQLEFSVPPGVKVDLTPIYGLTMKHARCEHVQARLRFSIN

[8] = biological target: T1, Sodium-dependent serotonin transporter; test: Ratio of duloxetine IC50 to compound IC50 for serotonin reuptake at human SERT expressed in HEK293 cells at 0.1 uM after 15 mins by fluorescence neurotransmitter transporter assay; type: cell-based
Target sequence in this assay (P31645 whole entry, looked up): as the sequence (P31645 whole entry, looked up) above

[9] = biological target: T2, Sodium-dependent noradrenaline transporter; test: Ratio of duloxetine IC50 to compound IC50 for norepinephrine reuptake at human NET expressed in HEK293 cells at 0.1 uM after 15 mins by fluorescence neurotransmitter transporter assay; type: cell-based
[10] = biological target: T2, Sodium-dependent noradrenaline transporter; test: Ratio of venlafaxine IC50 to compound IC50 for norepinephrine reuptake at human NET expressed in HEK293 cells at 0.1 uM after 15 mins by fluorescence neurotransmitter transporter assay; type: cell-based
[11] = biological target: T1, Sodium-dependent serotonin transporter; test: Ratio of venlafaxine IC50 to compound IC50 for serotonin reuptake at human SERT expressed in HEK293 cells at 0.1 uM after 15 mins by fluorescence neurotransmitter transporter assay; type: cell-based
Target sequence in this assay (P31645 whole entry, looked up): as the sequence (P31645 whole entry, looked up) above

Chain of CYP2D6 (P10635 whole entry): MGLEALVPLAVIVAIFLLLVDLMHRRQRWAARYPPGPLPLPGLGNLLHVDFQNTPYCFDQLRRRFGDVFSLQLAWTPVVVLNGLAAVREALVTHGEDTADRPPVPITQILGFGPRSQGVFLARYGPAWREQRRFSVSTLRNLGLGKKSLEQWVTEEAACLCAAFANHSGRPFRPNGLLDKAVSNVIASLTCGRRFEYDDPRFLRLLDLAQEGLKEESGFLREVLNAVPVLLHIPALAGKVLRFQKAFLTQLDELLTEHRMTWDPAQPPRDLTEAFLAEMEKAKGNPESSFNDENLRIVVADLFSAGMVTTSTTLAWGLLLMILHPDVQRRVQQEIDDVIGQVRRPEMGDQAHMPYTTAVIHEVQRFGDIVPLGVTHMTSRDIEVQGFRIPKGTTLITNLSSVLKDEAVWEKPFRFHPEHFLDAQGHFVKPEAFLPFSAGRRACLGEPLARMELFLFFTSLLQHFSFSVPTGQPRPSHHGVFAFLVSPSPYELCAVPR
T2 sequence (P23975 whole entry): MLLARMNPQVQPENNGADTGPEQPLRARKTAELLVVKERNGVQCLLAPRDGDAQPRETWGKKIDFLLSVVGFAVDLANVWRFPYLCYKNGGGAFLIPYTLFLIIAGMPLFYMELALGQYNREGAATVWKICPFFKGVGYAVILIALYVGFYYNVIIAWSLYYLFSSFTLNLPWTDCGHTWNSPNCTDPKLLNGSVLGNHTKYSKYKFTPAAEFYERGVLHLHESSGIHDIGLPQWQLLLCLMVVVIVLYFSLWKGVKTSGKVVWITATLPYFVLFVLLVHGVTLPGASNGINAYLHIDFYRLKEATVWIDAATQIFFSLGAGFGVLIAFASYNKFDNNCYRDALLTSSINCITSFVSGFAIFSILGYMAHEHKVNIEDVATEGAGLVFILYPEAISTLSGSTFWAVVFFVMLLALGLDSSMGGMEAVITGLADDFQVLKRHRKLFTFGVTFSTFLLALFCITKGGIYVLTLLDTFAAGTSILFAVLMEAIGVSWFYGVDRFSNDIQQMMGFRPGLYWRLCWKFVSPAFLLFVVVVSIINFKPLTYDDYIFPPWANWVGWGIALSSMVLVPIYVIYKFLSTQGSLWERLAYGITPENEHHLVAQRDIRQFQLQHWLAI
Chain of CYP3A4 (P08684 whole entry): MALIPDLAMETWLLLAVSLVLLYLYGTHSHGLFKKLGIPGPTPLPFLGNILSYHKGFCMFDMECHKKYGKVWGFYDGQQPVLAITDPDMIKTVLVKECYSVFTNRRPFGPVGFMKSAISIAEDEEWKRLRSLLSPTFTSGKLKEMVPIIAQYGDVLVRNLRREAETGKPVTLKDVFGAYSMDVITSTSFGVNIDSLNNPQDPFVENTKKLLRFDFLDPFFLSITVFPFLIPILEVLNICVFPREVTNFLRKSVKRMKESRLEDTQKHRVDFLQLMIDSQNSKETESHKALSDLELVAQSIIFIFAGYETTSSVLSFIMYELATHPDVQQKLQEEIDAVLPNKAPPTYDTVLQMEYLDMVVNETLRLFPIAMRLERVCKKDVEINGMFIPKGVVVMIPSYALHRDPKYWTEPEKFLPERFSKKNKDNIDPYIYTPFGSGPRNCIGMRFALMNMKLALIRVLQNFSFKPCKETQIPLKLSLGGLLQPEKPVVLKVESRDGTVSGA
Chain of Sodium-dependent dopamine transporter (Q01959 whole entry): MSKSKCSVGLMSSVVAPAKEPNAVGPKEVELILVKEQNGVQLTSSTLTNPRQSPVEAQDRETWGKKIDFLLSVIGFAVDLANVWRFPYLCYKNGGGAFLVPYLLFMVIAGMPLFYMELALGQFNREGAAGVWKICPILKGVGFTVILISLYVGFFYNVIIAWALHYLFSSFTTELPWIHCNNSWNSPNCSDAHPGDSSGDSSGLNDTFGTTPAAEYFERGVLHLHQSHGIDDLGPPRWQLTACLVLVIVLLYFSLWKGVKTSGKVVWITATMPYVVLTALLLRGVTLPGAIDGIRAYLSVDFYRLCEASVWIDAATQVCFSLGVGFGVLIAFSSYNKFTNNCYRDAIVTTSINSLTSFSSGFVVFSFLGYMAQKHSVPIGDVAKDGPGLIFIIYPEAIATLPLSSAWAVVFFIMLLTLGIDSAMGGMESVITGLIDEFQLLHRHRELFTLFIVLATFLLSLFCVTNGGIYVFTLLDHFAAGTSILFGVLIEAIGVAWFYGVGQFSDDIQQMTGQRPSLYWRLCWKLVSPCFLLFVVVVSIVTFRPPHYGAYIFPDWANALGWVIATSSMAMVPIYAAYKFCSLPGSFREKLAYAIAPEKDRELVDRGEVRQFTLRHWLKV
Chain of CYP2C9 (P11712 whole entry): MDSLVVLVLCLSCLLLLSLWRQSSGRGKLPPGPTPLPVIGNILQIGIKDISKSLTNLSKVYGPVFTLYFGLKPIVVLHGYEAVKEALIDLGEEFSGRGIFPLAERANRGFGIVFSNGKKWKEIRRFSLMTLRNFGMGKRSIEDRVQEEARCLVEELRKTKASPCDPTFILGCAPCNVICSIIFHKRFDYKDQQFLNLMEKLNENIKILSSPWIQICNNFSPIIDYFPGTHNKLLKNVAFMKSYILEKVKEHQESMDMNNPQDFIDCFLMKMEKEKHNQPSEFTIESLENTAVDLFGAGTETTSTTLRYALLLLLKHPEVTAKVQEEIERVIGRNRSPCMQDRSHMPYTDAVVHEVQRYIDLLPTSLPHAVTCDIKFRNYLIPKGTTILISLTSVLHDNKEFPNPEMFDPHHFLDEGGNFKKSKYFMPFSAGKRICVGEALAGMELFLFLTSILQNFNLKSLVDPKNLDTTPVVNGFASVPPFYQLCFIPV
Chain of CYP2C19 (P33261 whole entry): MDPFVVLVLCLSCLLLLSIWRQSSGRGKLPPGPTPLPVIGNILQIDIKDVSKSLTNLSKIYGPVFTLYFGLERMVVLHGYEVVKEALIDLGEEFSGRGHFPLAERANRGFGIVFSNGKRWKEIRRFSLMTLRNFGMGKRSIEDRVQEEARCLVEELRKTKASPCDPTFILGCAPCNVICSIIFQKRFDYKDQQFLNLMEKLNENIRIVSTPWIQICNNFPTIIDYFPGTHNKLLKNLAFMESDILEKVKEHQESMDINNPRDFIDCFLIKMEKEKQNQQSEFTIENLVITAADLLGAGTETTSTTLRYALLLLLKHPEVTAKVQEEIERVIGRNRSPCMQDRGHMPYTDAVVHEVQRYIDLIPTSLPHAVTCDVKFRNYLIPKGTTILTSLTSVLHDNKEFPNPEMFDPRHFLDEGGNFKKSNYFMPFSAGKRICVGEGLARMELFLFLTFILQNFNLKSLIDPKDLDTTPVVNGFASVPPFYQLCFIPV

Row | Structure (SMILES) | inhibition [2] | inhibition [5] | inhibition [6] | also measured
1 | Cc1cccc(OC(CC2CNC2)c2ccc(Cl)c(F)c2)c1 (stereo not drawn) | 100% | 100% | 100% | remaining at 0.5 h, 1 µM [1]: 36%; inhibition at 10 µM (CYP3A4): 12%; inhibition at 10 µM (CYP2C19): 5.5%; pIC50 [3]: 7.83; inhibition at 10 µM (CYP2C9): 6.8%; pIC50 [4]: 7.64; inhibition at 10 µM (CYP2D6): 12%; pIC50 [7]: 7.09; inhibition at 10 µM (CYP1A2): 58%
2 | Cc1ccccc1OC(CC1CNC1)c1ccc2ccccc2c1 (stereo not drawn) |  |  | 48% | 
3 | Fc1ccc(C(CC2CNC2)Oc2ccc(Cl)c(Cl)c2)cc1F (stereo not drawn) |  |  | 44% | 
4 | c1ccc(OC(CC2CNC2)c2ccccc2)cc1 (stereo not drawn) |  |  | 66% | 
5 | COCC(=O)O[C@]1(CCN(C)CCCc2nc3ccccc3[nH]2)CCc2cc(F)ccc2[C@@H]1C(C)C [MIBEFRADIL] |  |  |  | remaining at 0.5 h, 1 µM [1]: 43%
6 | Cc1ccccc1OC(CC1CNC1)c1ccc(F)c(F)c1 (stereo not drawn) |  |  | 93% | 
7 | Fc1ccc(OC(CC2CNC2)c2ccc(F)c(F)c2)cc1 (stereo not drawn) |  |  | 55% | 
8 | Fc1ccc(C(CC2CNC2)Oc2ccccc2Cl)cc1F (stereo not drawn) |  |  | 86% | 
9 | FC(F)(F)Oc1cccc(OC(CC2CNC2)c2ccc(Cl)c(Cl)c2)c1 (stereo not drawn) | 77% | 100% | 9% | 
10 | Fc1ccc(C(CC2CNC2)Oc2ccccc2F)cc1F (stereo not drawn) |  |  | 61% | 
11 | Fc1ccc(C(CC2CNC2)Oc2ccc(OC(F)(F)F)cc2)cc1F (stereo not drawn) |  |  | 83% | 
12 | Fc1cc(C(CC2CNC2)Oc2cccc(OC(F)(F)F)c2)ccc1Cl (stereo not drawn) | 97% | 100% | 25% | 
13 | Clc1cccc(OC(CC2CNC2)c2ccc(Cl)c(Cl)c2)c1 (stereo not drawn) | 100% | 100% | 35% | 
14 | FC(F)(F)Oc1ccccc1OC(CC1CNC1)c1ccc(Cl)c(Cl)c1 (stereo not drawn) | 93% | 100% | 16% | 
15 | Cc1ccccc1OC(CC1CNC1)c1ccc(Cl)c(F)c1 (stereo not drawn) | 100% | 100% | 94% | remaining at 0.5 h, 1 µM [1]: 59%; inhibition at 10 µM (CYP3A4): 16%; inhibition at 10 µM (CYP2C19): 14%; pIC50 [3]: 7.16; inhibition at 10 µM (CYP2C9): 32%; pIC50 [4]: 7.42; inhibition at 10 µM (CYP2D6): 15%; pIC50 [7]: 6.79; inhibition at 10 µM (CYP1A2): 55%
16 | CNCCC(Oc1ccccc1OC)c1ccccc1 (stereo not drawn) | 43% | 85% |  | 
17 | Fc1cc(C(CC2CNC2)Oc2ccccc2Cl)ccc1Cl (stereo not drawn) | 100% | 100% | 82% | remaining at 0.5 h, 1 µM [1]: 89%; inhibition at 10 µM (CYP3A4): 13%; inhibition at 10 µM (CYP2C19): 7.4%; pIC50 [3]: 7.51; inhibition at 10 µM (CYP2C9): 18%; pIC50 [4]: 7.43; inhibition at 10 µM (CYP2D6): 12%; pIC50 [7]: 6.79; inhibition at 10 µM (CYP1A2): 76%
18 | O=c1cc(-c2ccccc2)oc2c1ccc1ccccc12 [ALPHA-NAPHTHOFLAVONE] |  |  |  | inhibition at 10 µM (CYP1A2): 5.4%
19 | Fc1ccccc1OC(CC1CNC1)c1ccc(Cl)c(Cl)c1 (stereo not drawn) | 100% | 100% | 59% | Ratio IC50 [8]: > 7; Ratio IC50 [9]: > 7; Ratio IC50 [10]: > 7; pIC50 [3]: 7.47; pIC50 [4]: 7.13; Ratio IC50 [11]: > 7; pIC50 [7]: 7.27
20 | Clc1ccc(OC(CC2CNC2)c2ccc(Cl)c(Cl)c2)cc1Cl (stereo not drawn) | 88% | 100% | 21% | 
21 | Fc1cc(C(CC2CNC2)Oc2ccccc2OC(F)(F)F)ccc1Cl (stereo not drawn) | 100% | 100% | 48% | 
22 | c1ccc(OC(CC2CNC2)c2ccc3ccccc3c2)cc1 (stereo not drawn) |  |  | 56% | 
23 | Fc1cccc(OC(CC2CNC2)c2ccc(Cl)c(Cl)c2)c1 (stereo not drawn) | 100% | 100% | 26% | 
24 | Cc1ccc(OC(CC2CNC2)c2ccc(Cl)c(F)c2)cc1 (stereo not drawn) | 100% | 100% | 97% | remaining at 0.5 h, 1 µM [1]: 59%; inhibition at 10 µM (CYP3A4): 13%; inhibition at 10 µM (CYP2C19): 7.6%; pIC50 [3]: 7.48; inhibition at 10 µM (CYP2C9): 19%; pIC50 [4]: 7.41; inhibition at 10 µM (CYP2D6): 10%; pIC50 [7]: 6.96; inhibition at 10 µM (CYP1A2): 44%
25 | Clc1ccccc1OC(CC1CNC1)c1ccccc1 (stereo not drawn) |  |  | 100% | 

From ChEMBL document CHEMBL3352322, “Synthesis and biological evaluation of 3-phenethylazetidine derivatives as triple reuptake inhibitors” (Bioorg Med Chem Lett, 2014)
